From PubChem BioAssay (NCI)
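Here, GI50 denotes the concentration required for 50% inhibition of growth. The concentration for full growth arrest is given as TGI.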

Experiments:
Experiment in all cases: NCI-60 cell line screen, 384-well format
CCRF-CEM leukemia = tested on: CCRF-CEM leukemia
SK-MEL-28 melanoma = tested on: SK-MEL-28 melanoma
SNB-19 CNS = tested on: SNB-19 CNS
T-47D breast = tested on: T-47D breast
UACC-257 melanoma = tested on: UACC-257 melanoma
NCI/ADR-RES ovarian = tested on: NCI/ADR-RES ovarian
NCI-H226 lung = tested on: NCI-H226 lung
IGROV1 ovarian = tested on: IGROV1 ovarian
COLO 205 colon = tested on: COLO 205 colon
A498 renal = tested on: A498 renal
HT29 colon = tested on: HT29 colon
SW-620 colon = tested on: SW-620 colon
HL-60(TB) leukemia = tested on: HL-60(TB) leukemia
OVCAR-5 ovarian = tested on: OVCAR-5 ovarian
MDA-MB-231 breast = tested on: MDA-MB-231 breast
SN12C renal = tested on: SN12C renal
KM12 colon = tested on: KM12 colon
NCI-H522 lung = tested on: NCI-H522 lung
HOP-62 NSCLC = tested on: HOP-62 NSCLC
MDA-MB-468 breast = tested on: MDA-MB-468 breast
TK-10 renal = tested on: TK-10 renal
MALME-3M melanoma = tested on: MALME-3M melanoma
BT-549 breast = tested on: BT-549 breast
A549 NSCLC = tested on: A549 NSCLC
LOX IMVI melanoma = tested on: LOX IMVI melanoma
HS 578T breast = tested on: HS 578T breast
HCC-2998 colon = tested on: HCC-2998 colon
RXF 393 renal = tested on: RXF 393 renal
SK-MEL-5 melanoma = tested on: SK-MEL-5 melanoma
RPMI-8226 leukemia = tested on: RPMI-8226 leukemia

For CCN1CCC(Oc2c(C#N)ncc3[nH]c4ncccc4c23)CC1, the GI50 (CCRF-CEM leukemia) was 182 nM, the TGI (CCRF-CEM leukemia) was 356 nM and the GI50 (SK-MEL-28 melanoma) was over 100000 nM. The TGI (SK-MEL-28 melanoma) was over 100000 nM, the GI50 (SNB-19 CNS) was 4560 nM and the TGI (SNB-19 CNS) was over 100000 nM. It also gave a GI50 (T-47D breast) of over 100000 nM, a TGI (T-47D breast) of over 100000 nM and a GI50 (UACC-257 melanoma) of over 100000 nM. For the same compound, the TGI (UACC-257 melanoma) was over 100000 nM, the GI50 (NCI/ADR-RES ovarian) was 130 nM and the TGI (NCI/ADR-RES ovarian) was 438 nM. For the same compound, the GI50 (NCI-H226 lung) was over 23500 nM, the TGI (NCI-H226 lung) was over 100000 nM and the GI50 (IGROV1 ovarian) was 1630 nM. The TGI (IGROV1 ovarian) was over 100000 nM, the GI50 (COLO 205 colon) was 2520 nM and the TGI (COLO 205 colon) was 5810 nM. For the same compound, the GI50 (A498 renal) was under 45.6 nM, the TGI (A498 renal) was 133 nM and the GI50 (HT29 colon) was 5960 nM. The TGI (HT29 colon) was over 100000 nM, the GI50 (SW-620 colon) was 2300 nM and the TGI (SW-620 colon) was 5540 nM. It also gave a GI50 (HL-60(TB) leukemia) of 548 nM, a TGI (HL-60(TB) leukemia) of 1040 nM and a GI50 (OVCAR-5 ovarian) of 2650 nM. It also gave a TGI (OVCAR-5 ovarian) of over 100000 nM, a GI50 (MDA-MB-231 breast) of 26300 nM and a TGI (MDA-MB-231 breast) of 69800 nM. For the same compound, the GI50 (SN12C renal) was 3250 nM, the TGI (SN12C renal) was over 52100 nM and the GI50 (KM12 colon) was 640 nM. It also gave a TGI (KM12 colon) of 3900 nM, a GI50 (NCI-H522 lung) of 3190 nM and a TGI (NCI-H522 lung) of over 100000 nM. The GI50 (HOP-62 NSCLC) was 311 nM, the TGI (HOP-62 NSCLC) was 2060 nM and the TGI (MDA-MB-468 breast) was over 22500 nM. The GI50 (TK-10 renal) was 329 nM, the GI50 (MALME-3M melanoma) was 9760 nM and the TGI (MALME-3M melanoma) was over 100000 nM. The GI50 (BT-549 breast) was 147 nM, the TGI (BT-549 breast) was 426 nM and the GI50 (A549 NSCLC) was over 100000 nM. The TGI (A549 NSCLC) was over 100000 nM, the GI50 (LOX IMVI melanoma) was 1670 nM and the TGI (LOX IMVI melanoma) was over 100000 nM. The GI50 (HS 578T breast) was 199 nM, the TGI (HS 578T breast) was 1400 nM and the GI50 (HCC-2998 colon) was 93.3 nM. For the same compound, the TGI (HCC-2998 colon) was 410 nM, the GI50 (RXF 393 renal) was 51.5 nM and the TGI (RXF 393 renal) was 211 nM. For the same compound, the GI50 (SK-MEL-5 melanoma) was 2610 nM, the TGI (SK-MEL-5 melanoma) was over 100000 nM and the GI50 (RPMI-8226 leukemia) was 720 nM. The TGI (RPMI-8226 leukemia) was 1970 nM.
